The source of these data is US20240072809A1, “ASGPR-BINDING COMPOUNDS FOR THE DEGRADATION OF EXTRACELLULAR PROTEINS” (Avilar Therapeutics, Inc., priority 2020, published 2024).

The structures appear in SMILES notation.

The first experiment deals with ASGPR (Homo sapiens (Human), UniProt P07306). The experiment in a line: Affinity to ASGPR measured by surface plasmon resonance (SPR). Type of experiment: binding. Particulars: ASGPR ligands, Table 2; Biacore 8K, 25° C., steady state fit; read-out: SPR Binding External Calculation: KD.
Chain of ASGPR (P07306 whole entry): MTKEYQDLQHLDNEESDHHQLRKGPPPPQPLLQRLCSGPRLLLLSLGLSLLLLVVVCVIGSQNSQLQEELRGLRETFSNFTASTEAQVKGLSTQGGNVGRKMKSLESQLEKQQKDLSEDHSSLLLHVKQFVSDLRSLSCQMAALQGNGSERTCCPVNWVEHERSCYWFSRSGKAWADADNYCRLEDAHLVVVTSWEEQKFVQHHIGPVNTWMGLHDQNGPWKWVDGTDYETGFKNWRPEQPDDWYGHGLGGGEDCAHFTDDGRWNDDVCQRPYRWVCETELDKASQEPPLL
With `OC[C@H]1OC[C@@H](Cn2cnnn2)[C@@H](O)[C@H]1O` [Compound A196, (2R,3R,4R,5R)-5-((1H-tetrazol-1-yl)methyl)-2-(hydroxymethyl)tetrahydro-2H-pyran-3,4-diol], the Kd was under 100 µM.
On the same count and under the same terms, with `CO[C@@H]1O[C@H](CO)[C@H](O)[C@H](O)[C@@H]1OC` [Compound A217, (2R,3R,4S,5S,6R)-2-(hydroxymethyl)-5,6-dimethoxytetrahydro-2H-pyran-3,4-diol] the figure was over 1000 µM.

Still in this experiment, the particulars now being: ASGPR ligands, Table 4; class symbols; read-out: ASGPR_PR Binding KD.
Turning to `OC[C@H]1OC[C@H](Nc2nc(C(F)(F)F)cs2)[C@@H](O)[C@H]1O` [Compound A306], the Kd is under 100 µM.
The same measure, in the same setting: with `O=C1OCCN1[C@@H]1CO[C@H](CO)[C@H](O)[C@@H]1O` [Compound A223, 3-((3R,4R,5R,6R)-4,5-dihydroxy-6-(hydroxymethyl)tetrahydro-2H-pyran-3-yl)oxazolidin-2-one] the figure was under 100 µM; with `COc1nc(C#N)cc(N[C@H]2CO[C@H](CO)[C@H](O)[C@@H]2O)n1` [Compound A326], under 100 µM; with `OC[C@H]1OC[C@H](Nc2nc(C(F)(F)F)ns2)[C@@H](O)[C@H]1O` [Compound A300], under 100 µM.
Same read-out and setting: with `N#Cc1nc(N[C@H]2CO[C@H](CO)[C@H](O)[C@@H]2O)c2cccn2n1` [Compound A373, 4-(((3S,4R,5R,6R)-4,5-dihydroxy-6-(hydroxymethyl)tetrahydro-2H-pyran-3-yl)amino)pyrrolo[2,1-f][1,2,4]triazine-2-carbonitrile] the figure was under 100 µM.

Still in this experiment, the particulars now being: ASGPR ligands, Table 4; numeric lower bounds; read-out: ASGPR_PR Binding KD.
Turning to `OC[C@H]1OC[C@@H](NC2=NCCC(C(F)(F)F)=N2)[C@@H](O)[C@H]1O` [Compound A389], the Kd was over 20 µM.
On the same count and under the same terms, the same measure for `CO[C@@H]1O[C@H](CO)[C@H](O)[C@H](O)[C@H]1Nc1nc(C(=O)O)cs1` [Compound A385]: over 200 µM.
Still for that read-out and setting: the same measure for `COC(=O)c1cc(OC)nc(N[C@H]2CO[C@H](CO)[C@H](O)[C@@H]2O)n1` [Compound A374, methyl 2-(((3S,4R,5R,6R)-4,5-dihydroxy-6-(hydroxymethyl)tetrahydro-2H-pyran-3-yl)amino)-6-methoxypyrimidine-4-carboxylate]: over 20 µM; for `CNC(=O)[C@@H]1CO[C@H](CO)[C@H](O)[C@@H]1O` [Compound A400, (3R,4R,5R,6R)-4,5-dihydroxy-6-(hydroxymethyl)-N-methyltetrahydro-2H-pyran-3-carboxamide]: over 200 µM; for `OC[C@H]1OC[C@H](Nc2cc(C(F)(F)F)ncn2)[C@@H](O)[C@H]1O` [Compound A310]: over 20 µM.
Same read-out and setting: with `CC(=O)NCCNC[C@@H]1CO[C@H](CO)[C@H](O)[C@@H]1O` [Compound A402, N-(2-((((3R,4R,5R,6R)-4,5-dihydroxy-6-(hydroxymethyl)tetrahydro-2H-pyran-3-yl)methyl)amino)ethyl)acetamide] the figure was over 200 µM.
`COc1cc(N[C@H]2CO[C@H](CO)[C@H](O)[C@@H]2O)nc(C#N)n1` [Compound A333]: the Kd was over 10 µM.
The same measure, in the same setting: with `COc1cc(C(N)=O)cc(N[C@H]2CO[C@H](CO)[C@H](O)[C@@H]2O)n1` [Compound A365, 2-(((3S,4R,5R,6R)-4,5-dihydroxy-6-(hydroxymethyl)tetrahydro-2H-pyran-3-yl)amino)-6-methoxyisonicotinamide] the figure was over 20 µM.
